Results from patent US4091006A, “Esters of 3-hydroxyindone compounds” (priority 1975, dated 1978).
Values after ≈ are worked out from the molar mass of the structure shown.

Key:
Mite Adults = test: whole plant or invertebrate; details: for LC50: Tetranychus urticae, read-out: Mite Adults LD50; for Mite Adults LD95: concentration to kill 95 percent
Procedure: Adults and nymphal stages of the two-spotted mite (tetranychus urticae (Koch)), reared on Tendergreen bean plants at 80±5° F. and 50±5 percent relative humidity, were the test organisms. Infested leaves from a stock culture were placed on the primary leaves of two bean plants 6 to 8 inches in height, growing in a 21/2 inch clay pot. 150-200 Mites, a sufficient number for testing, transferred from the excised leaves to the fresh plants in a period of 24 hours. Following the 24 hour transfer period, the excised leaves were removed from the infested plants. The test compounds were formulated by diluting the stock suspension with water to provide suspensions containing the desired amount of test compound per million parts of final formulation. The potted plants (one pot per compound) were placed on a revolving turntable and sprayed with 100-110 milliliters of test compound formulation by use of a DeVilbis spray gun set at 40 psi. air pressure. This application, which lasted 30 seconds, was sufficient to wet the plants to run-off. As a control, 100-110 milliliters of a water solution containing acetone and emulsifier in the same concentrations as the test compound formulation, but containing no test compound, were also sprayed on infested plants. The sprayed plants were held at 80±5° F. and 50±5 percent relative humidity for 4 days, after which, a mortality count of motile forms was made. Microscopic examination for motile forms was made on the leaves of the test plants. Any individual which was capable of locomotion upon prodding was considered living.
(§1) Side by side comparison tests were conducted to determine the effectiveness of selected enol ester compounds relative to (bis(p-chlorophenyl)trichlorethanol) a miticide sold under the trademark Kelthane and ovex (p-chlorophenyl-p-chlorobenzene sulfonate) two widely used commercial miticides.

Mite Ova = test: whole plant or invertebrate; details: for LC50: Tetranychus urticae, read-out: Mite Ova LD50; for Mite Ova LD95: concentration to kill 95 percent
Procedure: The test organism was the egg of the two-spotted mite (Tetranychus urticae (Koch)), as obtained from adults reared on Tendergreen bean plants under controlled conditions of 80±5° F. and 50±5 percent relative humidity. Heavily infested leaves from a stock culture were placed on the primary leaves of two bean plants 6 to 8 inches in height, growing in a 21/2 inch clay pot. Females were allowed to oviposit for a period of 48 hours and then the leaves of the infested plants were dipped in a solution containing 800 parts of tetraethyl pyrophosphate per million parts of water in order to destroy the reproductory forms and thus prevent further egg laying. […] The plants were allowed to dry thoroughly. […] The potted plants (one pot per compound) were placed on a revolving turntable and sprayed with 100-110 milliliters of test compound formulation by use of a DeVilbis spray gun set at 40 psig. air pressure. This application, which lasted 30 seconds, was sufficient to wet the plants to run-off. As a control, 100-110 milliliters of a water solution containing acetone and emulsifier in the same concentrations as the test compound formulation, but containing no test compound, were also sprayed on plants infested with eggs. The sprayed plants were held at 80±5° F. and 50±5 percent relative humidity for 4 days, after which a microscopic examination was made of unhatched (dead) and hatched (living) eggs.
as §1

[1] = tested on: adults and nymphal stages of the two-spotted mite; test: Mite Foliage Spray Test; type: in vivo, Tetranychus urticae (Koch); details: 4 days
Excerpt: (§2) The test procedures were as follows:
(§3) Compositions were rated on the basis of percent kill with a rating of 1 indicating no mortality; 3 signifying an approximately 50% mortality and 5 indicating 100% mortality at the indicated dosage.

[2] = tested on: egg of the two-spotted mite; test: Mite Ovicide Test; type: in vivo, Tetranychus urticae (Koch); details: spray on eggs, 4 days
Excerpt: as §2
The plants were allowed to dry thoroughly.
as §3

[3] = tested on: eggs of the two-spotted mite; test: Fumigant toxicity, Method 1 (deposit in pie plate); type: in vivo; details: deposit approx. 160 μg per square cm, 4 days
Procedure: (§4) Two methods were used to evaluate fumigant properties:
Method 1: Fifty mg. of each compound were dissolved in 5 ml. of acetone and poured into a 20 cm. (bottom diameter) Pyrex No. 210 pie plate. The acetone was allowed to evaporate leaving a deposit of approximately 160 μg. per square cm. The plate was then placed in the bottom of a 50 pound metal lard container (about 30 cm. in diameter and 34 cm. high). Two excised bean plants, held in a 250 ml. Erlenmeyer flask containing 100 ml. of tap water and infested with eggs of the two-spotted mite, were placed in the center of the pie plate. The container was held in the insectary (temperature 80±5° F., 50±5% R. H.) for four days before mortality determinations were made.

[4] = tested on: egg forms of the two-spotted mite; test: Fumigant toxicity, Method 2 (treated plants near untreated infested plants); type: in vivo; details: 500 ppm dip, 4 days
Procedure: as §4
Method 2: Excised bean plants infested with egg forms of the two-spotted mite were dipped in an aqueous preparation (500 ppm) of the test compound. The treated plants were transferred to 250 ml. Erlenmeyer flasks containing 100 ml. of tap water. Four flasks holding treated plants were evenly spaced around a similar flask in which were placed untreated mite-infested plants so that the leaves of the treated foliage were in close proximity (1-3 inches) to the untreated plants. Four days later mortality determinations were made.

Bean = test: Phytotoxicity, bean; details: 2500 ppm, 10 days
Procedure: (§5) Experiments were also conducted to determine the phytotoxicity of representative enol ester compositions with respect to healthy fresh plants. […] The test plants were sprayed in accordance with the procedure described above for the Mite Foliage Spray Test so as to deliver approximately 100 milliliters of test solution to the leaves of each plant tested. The sprayed plants and controls were set aside for approximately 1 hour to allow the solutions to dry and were then placed in the greenhouse. After 10 days the plants were visually inspected to determine the extent of foliage injury. A rating of 1 indicates no perceptible injury; 5 indicates the plant was dead and ratings of 2, 3 and 4 indicate intermediate degrees of injury based upon the number and extent to which leaves were injured.

Corn = test: Phytotoxicity, corn; details: 2500 ppm, 10 days
Procedure: as §5

Tomato = test: Phytotoxicity, tomato; details: 2500 ppm, 10 days
Procedure: as §5

Cotton = test: Phytotoxicity, cotton; details: 2500 ppm, 10 days
Procedure: as §5

[5] = tested on: Perennial rye grass, crabgrass, red root pigweed, mustard; test: Preliminary Herbicide Seed Germination Test; details: each rated 1 (no injury) to 5 (no seedlings emerged)
[6] = rating/maximum 40: 100 and 1000 ppm, four species, 10-12 days
[7] = rating/maximum 15: 100 ppm only, crabgrass omitted

Compound	LC50 (Mite Adults)	LC50 (Mite Ova)	Mite Ova LD95 (Mite Ova)	Mite Adults LD95 (Mite Adults)	Mite Adult rating [1]	Mite Ova rating [2]	Fumigant Toxicity Method 1 [3]	Fumigant Toxicity Method 2 [4]	Phytotoxicity Rating, Bean (Bean)	Phytotoxicity Rating, Corn (Corn)	Phytotoxicity Rating, Tomato (Tomato)	Phytotoxicity Rating, Cotton (Cotton)	Herbicide (total preemergence rating) [5, 6]	Herbicide (total preemergence rating) [5, 7]	Herbicide (total preemergence rating) ([5]; rating/maximum 20: 100 ppm only, four species)
O=S(=O)(Oc1ccc(Cl)cc1)c1ccc(Cl)cc1 [Ovex, p-chlorophenyl-p-chlorobenzene sulfonate, reference compound]	1000 µg/mL	200 µg/mL	300 ppm	–	–	–	–	–	–	–	–	–	–	–	–
OC(c1ccc(Cl)cc1)(c1ccc(Cl)cc1)C(Cl)(Cl)Cl [Kelthane, bis(p-chlorophenyl)trichlorethanol]	20 µg/mL (≈ 54 µM)	370 µg/mL (≈ 999 µM)	700 ppm	65 ppm	–	–	–	–	–	–	–	–	–	–	–
Cc1cc(C)c(C2=C(OC(=O)C(C)C)c3ccccc3C2=O)c(C)c1 [2-(2',4',6'-Trimethylphenyl)-3-(isobutyryloxy)indone]	–	–	–	–	5 (100% mortality)	5 (100% mortality)	5 (80-100% control)	5 (80-100% control)	1	4	2	2	37/40	–	–
Cc1cc(C)c(C2=C(OC(=O)C3CC4C=CC3C4)c3ccccc3C2=O)c(C)c1 (stereo not drawn) [2-(2',4',6'-Trimethylphenyl)-3-(endo-exonorborn-5-en-2-carbonyloxy)indone]	–	–	–	–	5 (100% mortality)	5 (100% mortality)	1	1	1	1	1	2	–	11/15	–
COCC(=O)OC1=C(c2c(C)cc(C)cc2C)C(=O)c2ccccc21 [2-(2',4',6'-Trimethylphenyl)-3-(methoxyacetoxy)indone]	–	–	–	–	5 (100% mortality)	5 (100% mortality)	1	1	1	1	1	1	–	15/15	–
CCCCCCCCSC(=O)OC1=C(c2c(C)cc(C)cc2C)C(=O)c2ccccc21 [2-(2',4',6'-Trimethylphenyl)-3-(octylthiocarbonyloxy)indone]	–	–	–	–	5 (100% mortality)	5 (100% mortality)	1	1	1	1	1	1	–	11/15	–
COC(=O)CCC(=O)OC1=C(c2c(C)cc(C)cc2C)C(=O)c2ccccc21 [2-(2',4',6'-Trimethylphenyl)-3-(3-methoxycarbonylpropionyloxy)indone]	–	–	–	–	5 (100% mortality)	5 (100% mortality)	1	1	1	1	1	1	–	15/15	–
Cc1cc(C)c(C2=C(OC(=O)C3CCCCC3)c3ccccc3C2=O)c(C)c1 [2-(2',4',6'-Trimethylphenyl)-3-(cyclohexanoyloxy)indone]	–	–	–	–	5 (100% mortality)	5 (100% mortality)	1	1	1	1	2	2	31/40	–	–
CCCCC(CC)C(=O)OC1=C(c2c(C)cc(C)cc2C)C(=O)c2ccccc21 (stereo not drawn) [2-(2',4',6'-Trimethylphenyl)-3-(2-ethylhexanoyloxy)indone]	–	–	6 ppm	230 ppm	5 (100% mortality)	5 (100% mortality)	1	1	2	1	1	1	29/40	–	–
2-(2',4',6'-Trimethylphenyl)-3-(neodecanoyloxy)indone	–	–	–	–	5 (100% mortality)	5 (100% mortality)	1	1	2	2	1	1	–	–	10/20
